{"source": "patent US7807368B2", "about": "“Cyclin-dependent kinase inhibitors as targets for opiod growth factor treatment” (priority 2006, dated 2010)", "type_in_all_cases": "cell-based, human", "key": {"Rb protein": {"system": "Rb protein", "experiment": "Western blot of Rb, phospho-Rb, p105 and p107 in synchronized SCC-1 cells", "experimental": "Synchronized cells (˜2×10^6) from each treatment were solubilized in 200 μl RIPA buffer (1×PBS, 10 μM IGEPAL, 1 mg/ml SDS, 5 mg/ml deoxycholic acid), containing protease and phosphatase inhibitors (2 μg/ml aprotinin, 3 mg/ml phenylmethyl sulfonyl fluoride (PMSF), 1 mM sodium orthovanidate, 1 μM okadaic acid). Total protein concentrations were measured using the DC protein assay kit (Bio-Rad Laboratories, Hercules, Calif.). Equal amounts of protein (40 μg) were subjected to 10% SDS-PAGE followed by transfer of proteins onto polyvinylidene difluoride (Millipore, Billerica, Mass.) using standard protocols. The following antibodies were purchased from commercial sources: phospho-Rb (Ser795), phospho-Rb (Ser807/811) (Cell Signaling Technology, Beverly, Mass.); phospho-Rb (Thr821) (Biosource, Camarillo, Calif.); Cdk4, cyclin D1, p15, p16, p18, p19 (Santa Cruz Biotechnology, Santa Cruz, Calif.); total Rb, p21, p27 (BD PharMingen, San Diego, Calif.); β-actin (Clone AC-15, Sigma). The following dilutions of primary antibodies were used to detect respective proteins. 1:200 phospho-Rb (Ser795), 1:200 phospho-Rb (Ser807/811); 1:200 phospho-Rb (Thr821); 1:200 Cdk4, 1:200 cyclin D1, 1:100 p16; 1:200 total Rb, 1:200 p21, 1:100 p27. […]\nTo determine equal loading of total protein samples, blots were reprobed with monoclonal antibody against β-actin at a dilution of 1:2000. […] Means and SE were determined from 3 or more independent experiments.\nTo quantify expression levels or kinase activity, the optical density of each band was determined by densitometry and analyzed by QuickOne (Bio-Rad Laboratories). […] To report the changes due to OGF treatment, the fold increase was calculated by dividing the normalized value from the OGF treated samples by the normalized value of control samples at each time point; thus, increases due to OGF have values greater than one, and decreases due to OGF have values less than one."}, "p16/Cdk4 complex": {"system": "p16/Cdk4 complex", "experiment": "Cdk4 immunoprecipitation, p16/Cdk4 and cyclin D1/Cdk4 complexes in SCC-1 cells", "experimental": "Cell extracts were subjected to immunoprecipitation using antibodies against Cdk4 and protein A beads (Santa Cruz). Immunoprecipitates were separated on a 15% SDS-PAGE gel, and membrane blots probed with p16 antibodies (1:200), and developed using a chemiluminescence Western blotting detection system. Blots were re-probed with Cdk4 antibody (1:200). Five independent experiments were performed."}, "p21 [1]": {"system": "p21", "experiment": "Western blot of p21, p27 and Cdk2 in BxPC-3 cells", "experimental": "(§1) Synchronized cells (2×10^6) from each treatment were solubilized in 200 μl RIPA buffer (1×PBS, 10 μM IGEPAL, 1 mg/ml SDS, 5 mg/ml deoxycholic acid), containing protease and phosphatase inhibitors (2 μg/ml aprotinin, 3 mg/ml phenylmethyl sulfonyl fluoride, 1 mM sodium orthovanidate, 1 μM okadaic acid). Total protein concentrations were measured using the DC protein assay kit (Bio-Rad Laboratories, Hercules, Calif.). Equal amounts of protein (40 μg) were subjected to 10% SDS-PAGE followed by transfer of proteins onto polyvinylidene difluoride (Millipore, Billerica, Mass.) using standard protocols.\nThe following antibodies were purchased from commercial sources: phospho-Rb (Ser795), phospho-Rb (Ser807/811) (Cell Signaling Technology, Beverly, Mass.); Cdk2, p57 (Santa Cruz Biotechnology, Santa Cruz, Calif.); p21, p27, total Rb (BD PharMingen, San Diego, Calif.); β-actin (Clone AC-15, Sigma-Aldrich).\nMembranes were probed with secondary anti-rabbit or anti-mouse horseradish peroxidase-conjugated antibodies (GE Healthcare-Amersham Biosciences, Piscataway, N.J.), and developed using a chemiluminescence Western blotting detection system.\nTo determine equal loading of total protein samples, blots were re-probed with monoclonal antibody against β-actin at a dilution of 1:2000. If necessary, membranes were processed in stripping buffer (62.5 mM Tris-HCI and 100 mM β-mercaptoethanol/2% SDS, pH 6.7) at 50° C. before being re-probed.\nTo quantify expression levels or kinase activity, the optical density of each band was determined by densitometry and analyzed by QuickOne (Bio-Rad Laboratories). Each value was normalized to β-actin from the same blot. To report the changes due to OGF treatment, we calculated the fold increase by dividing the normalized value from the OGF treated samples by the normalized value of control samples at each time point; thus, increases due to OGF have values greater than one, and decreases due to OGF have values less than one. For all Western blot analyses, 3 or more independent experiments were performed.\nThe p21-targeted siRNAs were obtained from Santa Cruz Biotechnology, and negative control siRNAs were purchased from Ambion (Ambion, Inc., Austin, Tex.). For transfection, 2×10^5 cells per well were seeded in 6-well plates containing 1 ml of media without antibiotics. For each well, 1 μl of siRNA stock (20 μM) was mixed with 175 μl of serum-free media. Two μl of Oligofectamine reagent (Invitrogen, Carlsbad, Calif.) was added to prewashed cells in each well, making the final concentration for siRNA approximately 20 nM. Cells were incubated for 4 hours at 37° C. prior to the addition of OGF. Eighteen hours later, 1 ml fresh complete media with or without OGF was added to the cultures; media and OGF were replaced daily. At the indicated time points, cells were collected for growth curves or Western blotting."}, "p21 [2]": {"system": "p21", "experiment": "Western blot of p21 in Capan-2 cells", "conditions": "3 hours", "experimental": "Human pancreatic cancer cell lines BxPC-3, PANC-1, and Capan-2 were obtained from the American Type Culture Collection (Manassas, Va.), and cultured in RPMI, Dulbecco's Modified Medium, or McCoy's 5A medium, respectively. All media were supplemented with 10% fetal bovine serum, 1.2% sodium bicarbonate, and 0.25% antibiotics (5000 units/ml penicillin, 5 μg/ml streptomycin and 10 μg/ml neomycin). OGF was purchased from Sigma-Aldrich (St. Louis, Mo.), dissolved in sterile water, and used at a final concentration of 10^−6 M.\nas §1\nThe p21-targeted siRNAs were obtained from Santa Cruz Biotechnology, and negative control siRNAs were purchased from Ambion (Ambion, Inc., Austin, Tex.). For transfection, 2×10^5 cells per well were seeded in 6-well plates containing 1 ml of media without antibiotics. […]"}}, "note": "Entries after “also recorded” stand apart in the source; their conditions may differ."}
{"substance": "[Met^5]-enkephalin [OGF]", "values": [{"measurement": "phospho-Rb (pT821) levels", "setting": "Rb protein; OGF treatment, Western blot", "value": "did not alter"}, {"measurement": "Expression of total Rb protein", "setting": "Rb protein; after 14 h of OGF treatment", "value": "not decreased"}, {"measurement": "Total levels of p105 and p107", "setting": "Rb protein; after exposure to OGF", "value": "no changes"}, {"measurement": "level of the p16/Cdk4 complex", "setting": "p16/Cdk4 complex; 3, 6, 9, and 12 h, significant (p<0.05) at 9 and 12 h", "value": "elevated at all time points; also recorded: increased at all time points"}, {"measurement": "level of the cyclin D1/Cdk4 complex", "setting": "p16/Cdk4 complex; after treatment with OGF", "value": "no change"}, {"measurement": "expression of the cell cycle inhibitor p27", "setting": "p21 [1]; OGF treatment", "value": "no significant effect"}, {"measurement": "expression of Cdk2 protein", "setting": "p21 [1]; following OGF exposure", "value": "did not change"}, {"measurement": "p21 expression", "setting": "p21 [1]; synchronized BxPC-3 cells, 9 hours, 10^-6 M OGF, 10^-5 M naloxone", "value": "significantly upregulated; also recorded: significantly elevated"}, {"measurement": "p21 expression relative to control cultures", "setting": "p21 [2]", "value": "increased p21 expression"}]}
